From patent publication US8546443B2, “Benzylic oxindole pyrimidines” (Boehringer Ingelheim International GmbH, priority 2010, dated 2013)

How the values were obtained:
[1] = molecular target: T1, cytoplasmic kinase domain of human IGF-1R (IGF-1R-GST) (Homo sapiens, UniProt P08069); assay: Insulin-like growth factor-1 receptor (IGF-1R) kinase assay (DELFIA); assay type: biochemical; conditions: IGF-1R-GST kinase activity, read-out: IGF1R IC50
T1 construct: cytoplasmic kinase domain of human IGF-1R (amino acids 964-1370); GST (glutathione-S-transferase); made in house; host or cells: High Five insect cells (Invitrogen)
How it was run: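 GST-tagged IGF-1R cytoplasmic kinase domain phosphorylates pEY with biotinylated pEY for 40 min at RT; EDTA stop. Product captured on streptavidin, detected with europium anti-phosphotyrosine antibody by DELFIA time-resolved fluorescence; IC50 from inhibition curves.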

[2] = tested on: TC-71 (Ewing's sarcoma) cells; assay: Cell proliferation assay, TC-71 (Alamar Blue); assay type: cell-based; conditions: 72 h with compound, EC50 ranges as class symbols
Method: Cell Proliferation Assays
Compounds were tested for their anti-proliferative effects in the TC-71 (Ewing's sarcoma) and HCT 116 (colorectal carcinoma) cancer cell lines in vitro. Published scientific data has described that interference with the Insulin-like Growth Factor-1 Receptor (IGF-1R) signaling pathway reduces the proliferation of TC-71 cells. Therefore TC-71 cells served as a positive control cell line for monitoring the activity of compounds against IGF-1R-mediated cell proliferation. […] Therefore the HCT 116 cell line served as a negative control.
2000 TC-71 cells or 1000 HCT 116 cells were seeded per well in 180 μL IMDM+10% foetal calf serum (FCS)+ penicillin/streptomycin into 96-well microtitre plates. The plates were placed in a cell culture incubator (37° C. in a humidified atmosphere of […]/5 CO2) overnight. The following day, serial dilutions of compounds, prepared in duplicates, were transferred onto the cell layers (controls without compound). The cells were cultivated for a further 72 h in the cell culture incubator. 20 μL of Alamar Blue™ (Serotec Ltd, Düsseldorf, Germany) was added to each well and the plates incubated for 7 h in the cell culture incubator. Fluorescence (extinction wavelength of 544 nm and emission at 590 nm) was then measured and the normalized data fitted by iterative calculation with a sigmoidal curve analysis program (Graph Pad Prism) with a variable Hill slope to determine the IC50 values.

T1 sequence (P08069 964-1367 limits assumed): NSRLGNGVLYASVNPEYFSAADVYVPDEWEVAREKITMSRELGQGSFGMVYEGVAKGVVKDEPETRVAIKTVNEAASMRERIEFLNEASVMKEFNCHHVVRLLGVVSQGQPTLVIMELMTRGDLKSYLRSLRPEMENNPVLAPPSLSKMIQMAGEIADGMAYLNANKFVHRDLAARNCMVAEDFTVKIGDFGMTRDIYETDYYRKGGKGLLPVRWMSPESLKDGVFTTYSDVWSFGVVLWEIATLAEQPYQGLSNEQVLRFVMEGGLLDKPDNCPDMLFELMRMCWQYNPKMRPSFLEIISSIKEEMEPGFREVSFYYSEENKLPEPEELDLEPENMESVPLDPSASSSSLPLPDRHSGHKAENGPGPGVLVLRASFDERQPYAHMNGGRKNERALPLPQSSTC

| Structure (SMILES) | IC50 [1] [nM] | EC50 [2] [nM] |
| --- | --- | --- |
| CC1(C)C(=O)Nc2cccc(CNc3nc(Nc4ccc(C5CCCNC5)cc4)ncc3Br)c21 (racemic) [Example I-238] | 1 | 50 to 250 |
| CNC1(C(=O)N2CCCC(c3ccc(Nc4ncc(Br)c(NCc5cccc6c5C(C)(C)C(=O)N6)n4)c(C)c3)C2)CC1 (racemic) [Example I-291] | 6 | 50 to 250 |
| COc1cc(C2CCCN(CC(C)(C)O)C2)ccc1Nc1ncc(C(F)(F)F)c(NCc2cccc3c2C(C)(C)C(=O)N3)n1 (racemic) [Example I-301] | 1.6 | < 50 |
| Cc1cc(C2CCCN(CC(C)(C)O)C2)ccc1Nc1ncc(C(F)(F)F)c(NCc2cccc3c2C(C)(C)C(=O)N3)n1 (racemic) [Example I-306] | 1 | < 50 |
| Cc1cc(C2CCCN(CC(O)C(F)(F)F)C2)ccc1Nc1ncc(Br)c(NCc2cccc3c2C(C)(C)C(=O)N3)n1 (racemic) [Example I-316] | 2 | 50 to 250 |
| Cc1cc(C2CCCN(CC(C)(C)O)C2)ccc1Nc1ncc(Br)c(NCc2cccc3c2C(C)(C)C(=O)N3)n1 (racemic) [Example I-318] | 0.4 | < 50 |
| COc1cc(C2CCCN(CC(C)(C)O)C2)ccc1Nc1ncc(Br)c(NCc2cccc3c2C(C)(C)C(=O)N3)n1 (racemic) [Example I-322] | 0.5 | < 50 |
| CC1(C)C(=O)Nc2cccc(CNc3nc(Nc4ccc(C5CCCN(CC(O)C(F)(F)F)C5)cc4)ncc3Br)c21 (racemic) [Example I-325] | 2 | 50 to 250 |
| COc1cc(C2CCCN(CC(C)(C)O)C2)ccc1Nc1ncc(Cl)c(NCc2cccc3c2C(C)(C)C(=O)N3)n1 (racemic) [Example I-327] | 1 | < 50 |
| Cc1cc(C2CCCN(CC(C)(C)O)C2)ccc1Nc1ncc(Cl)c(NCc2cccc3c2C(C)(C)C(=O)N3)n1 (racemic) [Example I-328] | 1 | < 50 |
| Cc1cc(C2CCCN(CC(O)C(F)(F)F)C2)ccc1Nc1ncc(Cl)c(NCc2cccc3c2C(C)(C)C(=O)N3)n1 (racemic) [Example I-329] | 2 | < 50 |
| CC1(C)C(=O)Nc2cccc(CNc3nc(Nc4ccc(C5CCCN(CC(O)C(F)(F)F)C5)cc4)ncc3Cl)c21 (racemic) [Example I-333] | 2 | 250 to 3000 |
| COCCN1CCCC(c2ccc(Nc3ncc(C(F)(F)F)c(NCc4cccc5c4C(C)(C)C(=O)N5)n3)c(OC)c2)C1 (racemic) [Example I-350] | 0.5 | < 50 |
| COc1cc(C2CCCN(CCO)C2)ccc1Nc1ncc(C(F)(F)F)c(NCc2cccc3c2C(C)(C)C(=O)N3)n1 (racemic) [Example I-351] | 0.5 | < 50 |
| Cc1cc(C2CCCN(CCO)C2)ccc1Nc1ncc(C(F)(F)F)c(NCc2cccc3c2C(C)(C)C(=O)N3)n1 (racemic) [Example I-354] | 1 | < 50 |
| COCCN1CCCC(c2ccc(Nc3ncc(C(F)(F)F)c(NCc4cccc5c4C(C)(C)C(=O)N5)n3)c(C)c2)C1 (racemic) [Example I-356] | 0.8 | < 50 |
| COCCN1CCCC(c2ccc(Nc3ncc(Br)c(NCc4cccc5c4C(C)(C)C(=O)N5)n3)cc2)C1 (racemic) [Example I-357] | 0.7 | 50 to 250 |
| CC1(C)C(=O)Nc2cccc(CNc3nc(Nc4ccc(C5CCCN(CCO)C5)cc4)ncc3Br)c21 (racemic) [Example I-358] | 0.7 | < 50 |
| COCCN1CCCC(c2ccc(Nc3ncc(Br)c(NCc4cccc5c4C(C)(C)C(=O)N5)n3)c(C)c2)C1 (racemic) [Example I-359] | 0.5 | < 50 |
| COCCN1CCCC(c2ccc(Nc3ncc(Br)c(NCc4cccc5c4C(C)(C)C(=O)N5)n3)c(OC)c2)C1 (racemic) [Example I-360] | 0.6 | < 50 |
| COc1cc(C2CCCN(CCO)C2)ccc1Nc1ncc(Br)c(NCc2cccc3c2C(C)(C)C(=O)N3)n1 (racemic) [Example I-361] | – | < 50 |
| Cc1cc(C2CCCN(CCO)C2)ccc1Nc1ncc(Br)c(NCc2cccc3c2C(C)(C)C(=O)N3)n1 (racemic) [Example I-364] | 0.6 | < 50 |

| Structure (SMILES) | IC50 [1] [nM] | EC50 [2] [nM] |
| --- | --- | --- |
| CNC(=O)CN1CCCC(c2ccc(Nc3ncc(Br)c(NCc4cccc5c4C(C)(C)C(=O)N5)n3)cc2)C1 (racemic) [Example I-365] | 1 | 50 to 250 |
| CNC(=O)CN1CCCC(c2ccc(Nc3ncc(Br)c(NCc4cccc5c4C(C)(C)C(=O)N5)n3)c(C)c2)C1 (racemic) [Example I-366] | 2 | 50 to 250 |
| CCc1cc(C2CCCN(CCOC)C2)ccc1Nc1ncc(Br)c(NCc2cccc3c2C(C)(C)C(=O)N3)n1 (racemic) [Example I-368] | 2 | < 50 |
| COCCN1CCCC(c2ccc(Nc3ncc(Cl)c(NCc4cccc5c4C(C)(C)C(=O)N5)n3)c(OC)c2)C1 (racemic) [Example I-371] | 0.8 | < 50 |
| COc1cc(C2CCCN(CCO)C2)ccc1Nc1ncc(Cl)c(NCc2cccc3c2C(C)(C)C(=O)N3)n1 (racemic) [Example I-372] | 0.8 | < 50 |
| COCCN1CCCC(c2ccc(Nc3ncc(Cl)c(NCc4cccc5c4C(C)(C)C(=O)N5)n3)c(C)c2)C1 (racemic) [Example I-373] | 0.4 | 50 to 250 |
| COCCN1CCN(c2ccc(Nc3ncc(C(F)(F)F)c(NCc4cccc5c4CC(=O)N5)n3)c(OC)c2)CC1 [Example I-224] | 18 | – |
| CCN1CCC(NC(=O)c2ccc(Nc3ncc(C(F)(F)F)c(NCc4cccc5c4C(C)(C)C(=O)N5)n3)c(OC)c2)CC1 [Example I-225] | 2 | – |
| COc1cc(N2CCC(C(=O)NC3CCN(C)CC3)CC2)ccc1Nc1ncc(C(F)(F)F)c(NCc2cccc3c2C(C)(C)C(=O)N3)n1 [Example I-226] | 2 | – |
| CNC(=O)C1CCN(c2ccc(Nc3ncc(C(F)(F)F)c(NCc4cccc5c4C(C)(C)C(=O)N5)n3)c(OC)c2)CC1 [Example I-227] | 5 | – |
| COc1cc(C(=O)NC2CCN(C)CC2)ccc1Nc1ncc(C(F)(F)F)c(NCc2cccc3c2C(C)(C)C(=O)N3)n1 [Example I-228] | 8 | – |
| CCN1CCC(NC(=O)c2ccc(Nc3ncc(C(F)(F)F)c(NCc4cccc5c4CC(=O)N5)n3)c(OC)c2)CC1 [Example I-229] | 12 | – |
| COc1cc(N2CCC(C(=O)N(C)C)CC2)ccc1Nc1ncc(C(F)(F)F)c(NCc2cccc3c2C(C)(C)C(=O)N3)n1 [Example I-230] | 13 | – |
| COc1cc(C(=O)NC2CCN(C)CC2)ccc1Nc1ncc(C(F)(F)F)c(NCc2cccc3c2C(C)(C)C(=O)N3C)n1 [Example I-231] | 15 | – |
| COc1cc(C(=O)NCCN2CCCC2)ccc1Nc1ncc(C(F)(F)F)c(NCc2cccc3c2CC(=O)N3)n1 [Example I-232] | 47 | – |
| CCC1(CC)C(=O)Nc2cccc(CNc3nc(Nc4ccc(C(=O)NC5CCN(C)CC5)cc4OC)ncc3C(F)(F)F)c21 [Example I-233] | 58 | – |
| COc1cc(C(=O)N2CCOCC2)ccc1Nc1ncc(C(F)(F)F)c(NCc2cccc3c2C(C)(C)C(=O)N3)n1 [Example I-234] | 8 | – |
| COc1cc(N2CCC(O)CC2)ccc1Nc1ncc(C(F)(F)F)c(NCc2cccc3c2CC(=O)N3)n1 [Example I-237] | 21 | – |
| COc1cc(N2CCNCC2)ccc1Nc1ncc(Cl)c(NCc2cccc3c2C(C)(C)C(=O)N3)n1 [Example I-254] | 2.2 | – |
| CC(C)(O)CN1CCC(c2ccc(Nc3ncc(C(F)(F)F)c(NCc4cccc5c4C(C)(C)C(=O)N5)n3)c3c2OCO3)CC1 [Example I-315] | 1.9 | – |
| Cc1cc(C2CCN(CC(C)(C)O)CC2)c(C)cc1Nc1ncc(Cl)c(NCc2cccc3c2C(C)(C)C(=O)N3)n1 [Example I-338] | – | 250 to 3000 |
| CNC(=O)CN1CCC(c2ccc(Nc3ncc(Cl)c(NCc4cccc5c4C(C)(C)C(=O)N5)n3)c(C)c2)CC1 [Example I-370] | – | < 50 |
